According to ChEMBL document CHEMBL5030545, “Discovery of clinical candidate Sivopixant (S-600918): Lead optimization of dioxotriazine derivatives as selective P2X3 receptor antagonists” (Bioorg Med Chem Lett, 2021):
Values after ≈ are worked out from the molar mass of the structure shown.

How the values were obtained:
Rattus norvegicus [1] = assay: Analgesic activity in rat model of partial sciatic nerve ligation-induced neuropathic pain assessed as reversal of allodynia at 3 mg/kg, po measured after 3 hrs relative to control; assay type: functional
[2] = Oral bioavailability in rat at 1 mg/kg administered as cassette dose; assay type: ADME, organism-based; conditions: in vivo
[3] = Protein binding in rat plasma assessed as unbound fraction at 1 mg/kg administered as cassette dose; assay type: ADME, organism-based
[4] = Free plasma concentration in rat plasma at 1 mg/kg administered as cassette dose; assay type: ADME, organism-based; conditions: in vivo
P2X purinoceptor 3 = molecular target: T1, P2X purinoceptor 3 (Rattus norvegicus, UniProt P49654); assay: Antagonist activity at rat P2X3 receptor
T1 sequence (P49654 whole entry): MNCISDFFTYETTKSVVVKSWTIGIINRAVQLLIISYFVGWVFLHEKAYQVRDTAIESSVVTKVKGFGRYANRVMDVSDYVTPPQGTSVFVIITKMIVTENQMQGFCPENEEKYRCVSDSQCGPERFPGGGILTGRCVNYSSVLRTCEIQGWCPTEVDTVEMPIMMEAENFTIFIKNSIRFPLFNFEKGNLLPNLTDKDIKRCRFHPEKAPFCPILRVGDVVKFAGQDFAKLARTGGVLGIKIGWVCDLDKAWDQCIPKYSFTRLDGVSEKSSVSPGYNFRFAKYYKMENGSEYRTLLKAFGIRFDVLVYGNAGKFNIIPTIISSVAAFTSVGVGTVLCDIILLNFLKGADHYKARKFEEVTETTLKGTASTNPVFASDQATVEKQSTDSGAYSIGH

P2X purinoceptor 2 = molecular target: T2, P2X purinoceptor 2 (Homo sapiens, UniProt Q9UBL9); assay: Antagonist activity at P2X2 receptor (unknown origin)
T2 sequence (Q9UBL9 whole entry): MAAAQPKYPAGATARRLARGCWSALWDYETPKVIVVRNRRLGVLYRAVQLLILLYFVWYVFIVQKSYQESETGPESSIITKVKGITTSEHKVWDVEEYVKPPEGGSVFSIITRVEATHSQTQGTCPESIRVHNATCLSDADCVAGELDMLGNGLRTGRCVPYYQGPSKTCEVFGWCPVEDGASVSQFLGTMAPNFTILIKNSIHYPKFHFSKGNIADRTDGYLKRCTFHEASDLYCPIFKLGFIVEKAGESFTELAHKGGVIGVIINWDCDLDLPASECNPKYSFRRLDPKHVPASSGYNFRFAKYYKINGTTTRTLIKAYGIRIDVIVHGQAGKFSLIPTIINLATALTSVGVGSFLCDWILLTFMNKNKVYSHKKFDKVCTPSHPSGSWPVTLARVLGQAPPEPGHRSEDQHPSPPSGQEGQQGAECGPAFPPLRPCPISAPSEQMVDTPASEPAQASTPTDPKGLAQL

P2X purinoceptor 4 = molecular target: T3, P2X purinoceptor 4 (Homo sapiens, UniProt Q99571); assay: Antagonist activity at P2X4 receptor (unknown origin)
T3 sequence (Q99571 whole entry): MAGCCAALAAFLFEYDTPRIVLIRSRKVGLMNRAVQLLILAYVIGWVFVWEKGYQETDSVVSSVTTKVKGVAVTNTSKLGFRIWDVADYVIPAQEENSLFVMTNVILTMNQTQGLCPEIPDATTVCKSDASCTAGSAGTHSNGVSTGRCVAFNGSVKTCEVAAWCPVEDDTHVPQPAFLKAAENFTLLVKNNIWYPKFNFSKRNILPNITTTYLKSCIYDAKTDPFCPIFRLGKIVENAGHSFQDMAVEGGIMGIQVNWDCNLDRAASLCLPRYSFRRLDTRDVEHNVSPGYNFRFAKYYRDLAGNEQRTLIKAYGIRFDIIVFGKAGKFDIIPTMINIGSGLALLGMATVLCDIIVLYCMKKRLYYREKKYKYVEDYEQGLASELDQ

P2X purinoceptor 7 = molecular target: T4, P2X purinoceptor 7 (Homo sapiens, UniProt Q99572); assay: Antagonist activity at P2X7 receptor (unknown origin)
T4 sequence (Q99572 whole entry): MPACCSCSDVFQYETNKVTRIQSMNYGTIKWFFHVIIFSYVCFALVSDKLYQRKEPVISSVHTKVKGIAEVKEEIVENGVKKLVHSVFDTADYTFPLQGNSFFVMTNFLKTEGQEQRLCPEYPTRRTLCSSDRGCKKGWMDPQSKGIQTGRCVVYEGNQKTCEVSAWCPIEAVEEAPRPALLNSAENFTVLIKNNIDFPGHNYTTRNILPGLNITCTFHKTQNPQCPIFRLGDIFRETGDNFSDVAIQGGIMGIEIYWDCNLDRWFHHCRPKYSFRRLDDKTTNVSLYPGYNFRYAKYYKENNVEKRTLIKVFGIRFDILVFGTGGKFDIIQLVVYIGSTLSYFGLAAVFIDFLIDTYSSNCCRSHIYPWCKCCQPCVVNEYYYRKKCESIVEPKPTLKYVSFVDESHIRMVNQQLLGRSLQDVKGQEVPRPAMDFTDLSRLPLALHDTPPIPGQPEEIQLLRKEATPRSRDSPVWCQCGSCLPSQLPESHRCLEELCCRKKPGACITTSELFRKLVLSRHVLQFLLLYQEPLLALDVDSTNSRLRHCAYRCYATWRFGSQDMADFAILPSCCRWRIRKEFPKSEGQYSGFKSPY

[5] = Solubility of the compound in pH 1.2 JP1 fluid; assay type: physicochemical
[6] = Solubility of the compound in JP2 fluid at pH 6.8; assay type: physicochemical
Cytochrome P450 2C9 = Cytochrome P450 2C9 (Homo sapiens, UniProt P11712); assay: Inhibition of CYP2C9 (unknown origin); assay type: ADME
Cytochrome P450 2C19 = Cytochrome P450 2C19 (Homo sapiens, UniProt P33261); assay: Inhibition of CYP2C19 (unknown origin); assay type: ADME
Cytochrome P450 2D6 = Cytochrome P450 2D6 (Homo sapiens, UniProt P10635); assay: Inhibition of CYP2D6 (unknown origin); assay type: functional
Cytochrome P450 3A4 = Cytochrome P450 3A4 (Homo sapiens, UniProt P08684); assay: Inhibition of CYP3A4 (unknown origin); assay type: ADME
[7] = Clearance in rat at 1 mg/kg, iv; assay type: ADME, organism-based; conditions: in vivo
[8] = Half life in rat at 1 mg/kg, iv; assay type: ADME, organism-based; conditions: in vivo
[9] = AUC in rat at 3 mg/kg, po; assay type: ADME, organism-based; set-up: dose 3 mg/kg; conditions: in vivo
[10] = Cmax in rat at 3 mg/kg, po; assay type: ADME, organism-based; set-up: route oral, dose 3 mg/kg; conditions: in vivo
Rattus norvegicus [11] = assay: Analgesic activity in po dosed rat model of partial sciatic nerve ligation-induced neuropathic pain; assay type: functional
Rattus norvegicus [12] = assay: Analgesic activity in rat model of partial sciatic nerve ligation-induced neuropathic pain assessed as maximum efficacy at 3 mg/kg, po relative to control; assay type: functional
[13] = Ratio of plasma concentration in rat measured after 3 hrs to IC50 of P2X3 (unknown origin); assay type: ADME; conditions: in vivo

Sequence of Cytochrome P450 2C9 (P11712 whole entry): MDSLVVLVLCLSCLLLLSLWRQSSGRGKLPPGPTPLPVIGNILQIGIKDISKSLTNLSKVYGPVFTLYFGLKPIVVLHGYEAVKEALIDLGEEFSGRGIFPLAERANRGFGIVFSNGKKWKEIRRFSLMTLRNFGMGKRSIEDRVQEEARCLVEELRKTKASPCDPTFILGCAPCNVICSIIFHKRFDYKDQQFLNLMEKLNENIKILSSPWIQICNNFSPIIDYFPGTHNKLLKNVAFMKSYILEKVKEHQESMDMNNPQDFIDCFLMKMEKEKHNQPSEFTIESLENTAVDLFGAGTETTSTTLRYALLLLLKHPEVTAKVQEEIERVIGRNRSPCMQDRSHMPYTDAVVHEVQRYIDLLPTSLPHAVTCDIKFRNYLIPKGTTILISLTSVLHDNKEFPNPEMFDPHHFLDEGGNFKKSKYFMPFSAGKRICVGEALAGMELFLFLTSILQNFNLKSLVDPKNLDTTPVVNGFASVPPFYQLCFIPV
Sequence of Cytochrome P450 2C19 (P33261 whole entry): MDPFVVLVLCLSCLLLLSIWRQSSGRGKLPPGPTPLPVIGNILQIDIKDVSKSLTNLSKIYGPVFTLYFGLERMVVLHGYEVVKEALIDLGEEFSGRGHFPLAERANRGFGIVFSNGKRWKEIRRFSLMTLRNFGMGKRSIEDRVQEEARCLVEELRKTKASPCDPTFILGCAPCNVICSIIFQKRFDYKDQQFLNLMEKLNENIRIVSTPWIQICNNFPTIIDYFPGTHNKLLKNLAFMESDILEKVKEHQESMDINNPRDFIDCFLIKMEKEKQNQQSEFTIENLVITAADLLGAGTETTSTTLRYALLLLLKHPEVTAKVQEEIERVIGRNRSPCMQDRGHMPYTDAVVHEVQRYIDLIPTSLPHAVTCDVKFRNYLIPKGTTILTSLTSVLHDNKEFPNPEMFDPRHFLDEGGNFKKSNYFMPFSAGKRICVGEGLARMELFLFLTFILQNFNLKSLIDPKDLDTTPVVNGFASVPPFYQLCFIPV
Sequence of Cytochrome P450 2D6 (P10635 whole entry): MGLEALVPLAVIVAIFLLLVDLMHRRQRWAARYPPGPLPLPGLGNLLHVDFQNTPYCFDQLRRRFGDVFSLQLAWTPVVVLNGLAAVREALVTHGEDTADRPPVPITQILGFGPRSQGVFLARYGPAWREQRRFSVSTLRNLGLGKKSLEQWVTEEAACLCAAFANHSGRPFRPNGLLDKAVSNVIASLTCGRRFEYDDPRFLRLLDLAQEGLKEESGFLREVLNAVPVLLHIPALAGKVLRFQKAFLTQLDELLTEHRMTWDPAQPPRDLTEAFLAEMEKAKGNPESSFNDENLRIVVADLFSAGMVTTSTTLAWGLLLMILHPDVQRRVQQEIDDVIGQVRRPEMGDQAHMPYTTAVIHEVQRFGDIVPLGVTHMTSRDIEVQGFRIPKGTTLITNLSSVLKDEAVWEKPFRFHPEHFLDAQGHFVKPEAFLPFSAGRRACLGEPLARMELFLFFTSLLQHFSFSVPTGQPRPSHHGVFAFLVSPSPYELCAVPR
Sequence of Cytochrome P450 3A4 (P08684 whole entry): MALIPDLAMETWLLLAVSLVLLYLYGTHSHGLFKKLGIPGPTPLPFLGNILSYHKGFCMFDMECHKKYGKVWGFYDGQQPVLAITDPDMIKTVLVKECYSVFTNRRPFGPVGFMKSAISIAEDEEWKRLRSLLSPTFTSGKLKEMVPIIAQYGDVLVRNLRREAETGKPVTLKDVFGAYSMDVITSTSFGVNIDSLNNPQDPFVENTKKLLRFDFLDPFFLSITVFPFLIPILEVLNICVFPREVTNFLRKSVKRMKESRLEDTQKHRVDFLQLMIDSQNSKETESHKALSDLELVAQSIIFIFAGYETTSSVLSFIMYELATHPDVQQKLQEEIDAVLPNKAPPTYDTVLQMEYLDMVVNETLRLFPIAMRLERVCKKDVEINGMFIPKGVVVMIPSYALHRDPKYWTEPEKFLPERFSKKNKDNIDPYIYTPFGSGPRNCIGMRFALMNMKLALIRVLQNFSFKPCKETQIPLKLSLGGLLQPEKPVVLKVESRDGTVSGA

In the case of C[C@@H](Cn1c(=O)[nH]/c(=N\c2ccc(Oc3ccccn3)cc2)n(Cc2ccc(Cl)cc2)c1=O)C(=O)O, the Activity (Rattus norvegicus [1]) is reported as 64%, the bioavailability [2] is reported as 52.8% and the fraction unbound [3] is reported as 0.01. The “Cp(f)” value [4] was 658 nM, the IC50 (P2X purinoceptor 3) was 0.004 µM and the IC50 (P2X purinoceptor 2) was over 30 µM. It also gave an IC50 (P2X purinoceptor 4) of over 30 µM, an IC50 (P2X purinoceptor 7) of over 30 µM and a solubility [5] of 31.5 µg/mL (≈ 62 µM). For the same compound, the solubility [6] was 458 µg/mL (≈ 902 µM), the IC50 (Cytochrome P450 2C9) was over 20 µM and the IC50 (Cytochrome P450 2C19) was over 20 µM. For the same compound, the IC50 (Cytochrome P450 2D6) was over 20 µM, the IC50 (Cytochrome P450 3A4) was over 20 µM and the clearance [7] was 2.7 mL/min/kg. For the same compound, the half-life [8] was 10.1 h, the AUC [9] was 14000 ng·h/mL and the Cmax [10] was 1630 ng/mL. The ED50 (Rattus norvegicus [11]) was 0.4 mg/kg, the Emax at 3 mg/kg (Rattus norvegicus [12]) was 64% and the Ratio [13] was 156.9.
